Laboratory results published in US6737383B1, “Herbicidal oxadiazolidines” (priority 1999, dated 2004).

Tests used:
[1] = system: Italian ryegrass; assay: Test E Italian ryegrass; assay type: in vivo, Lolium multiflorum; conditions: Preemergence
[2] = system: winter barley; assay: Test E winter barley; assay type: in vivo, Hordeum vulgare; conditions: Preemergence
[3] = system: morningglory; assay: Test B pre/postemergence morningglory; assay type: in vivo, Ipomoea hederacea
How it was run: (§1)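 Test chemicals in a non-phytotoxic solvent mixture with surfactant were sprayed preemergence onto planted seeds and postemergence onto plants 2 to 18 cm tall (1- to 4-leaf stage). After twelve to sixteen days in a greenhouse, injury was visually rated against untreated controls from 0 (no effect) to 10 (complete control).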

[4] = system: wild oat; assay: Test E wild oat; assay type: in vivo, Avena fatua; conditions: Preemergence
[5] = system: green foxtail; assay: Test E green foxtail; assay type: in vivo, Setaria viridis; conditions: Preemergence
[6] = system: winter wheat; assay: Test E winter wheat; assay type: in vivo, Triticum aestivum; conditions: Postemergence; for Plant response rating, Wheat (winter): 0 to 100 scale, 0 is no effect, 100 is complete control
How it was run: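 Visual evaluation versus untreated controls after about 21 to 28 days in the greenhouse. Compound was in a surfactant-containing non-phytotoxic solvent; postemergence plants were treated at the 1- to 4-leaf stage, grown in a 60:40 sandy loam and potting mix blend.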

[7] = system: giant foxtail; assay: Test B pre/postemergence giant foxtail; assay type: in vivo, Setaria faberii
How it was run: as §1

[8] = system: pigweed; assay: Test B pre/postemergence pigweed; assay type: in vivo, Amaranthus retroflexus
How it was run: as §1

[9] = system: winter wheat; assay: Test E winter wheat; assay type: in vivo, Triticum aestivum; conditions: Preemergence
[10] = system: blackgrass; assay: Test E blackgrass; assay type: in vivo, Alopecurus myosuroides; conditions: Preemergence
[11] = system: rape; assay: Test B pre/postemergence rape; assay type: in vivo, Brassica napus
How it was run: as §1

[12] = Rate 125 g/ha, 0 to 100 scale (0 no effect, 100 complete control)
[13] = Rate 500 g/ha, 0 to 100 scale where 0 is no effect and 100 is complete control
[14] = Preemergence, Rate 62 g/ha, scale of 0 to 10 where 0 is no effect and 10 is complete control
[15] = Preemergence, Rate 250 g/ha, scale of 0 to 10 where 0 is no effect and 10 is complete control
[16] = Preemergence, Rate 500 g/ha, scale of 0 to 10 where 0 is no effect and 10 is complete control
[17] = Rate 62 g/ha, Postemergence, scale of 0 to 10 where 0 is no effect and 10 is complete control
[18] = Rate 125 g/ha, Postemergence, scale 0 to 10
[19] = Rate 125 g/ha, Preemergence, scale of 0 to 10 where 0 is no effect and 10 is complete control
[20] = Rate 500 g/ha, Postemergence, scale 0 to 10, 0 no effect, 10 complete control

In the case of CC(C)N(C(=O)n1oc(=O)n(CCC2OCCO2)c1=O)c1ccc(F)cc1 [Compound 219], the “Plant response rating, I. Ryegrass” value [1, 12] is reported as 30, the “I. Ryegrass plant response rating (0 to 100 scale)” value ([1]; Rate 250 g/ha) is reported as 55 and the “Plant response rating, I. Ryegrass” value [1, 13] is reported as 70. The “Plant response rating, Barley (winter)” value [2, 12] was 20, the “Barley (winter) plant response rating (0 to 100 scale)” value ([2]; Rate 250 g/ha) was 30 and the “Plant response rating, Barley (winter)” value [2, 13] was 70. The “Morningglory plant response rating” value [3, 14] was 0, the “Morningglory plant response rating” value [3, 15] was 0 and the “Plant response rating, Morningglory” value [3, 16] was 1. The “Morningglory plant response rating” value [3, 17] was 6, the “Morningglory plant response rating” value [3, 18] was 6 and the “Morningglory plant response rating” value [3, 19] was 0. For the same compound, the “Plant response rating (0 to 10; 0 is no effect, 10 is complete control), Morningglory” value ([3]; Rate 250 g/ha, Postemergence) was 7, the “Morningglory plant response rating” value [3, 20] was 7 and the “Plant response rating, Wild oat” value [4, 12] was 30. The “Wild oat plant response rating (0 to 100 scale)” value ([4]; Rate 250 g/ha) was 50, the “Plant response rating, Wild oat” value [4, 13] was 60 and the “Plant response rating, Green foxtail” value [5, 12] was 65. For the same compound, the “Green foxtail plant response rating (0 to 100 scale)” value ([5]; Rate 250 g/ha) was 60, the “Plant response rating, Green foxtail” value [5, 13] was 70 and the “Plant response rating, Wheat (winter)” value ([6]; Rate 125 g/ha) was 20. For the same compound, the “Wheat (winter) plant response rating” value ([6]; Rate 250 g/ha, 0 to 100 scale where 0 is no effect and 100 is complete control) was 50, the “Plant response rating, Wheat (winter)” value ([6]; Rate 500 g/ha) was 60 and the “Giant foxtail plant response rating” value [7, 14] was 10. The “Giant foxtail plant response rating” value [7, 15] was 10, the “Plant response rating, Giant foxtail” value [7, 16] was 10 and the “Giant foxtail plant response rating” value [7, 17] was 6. The “Giant foxtail plant response rating” value [7, 18] was 7, the “Giant foxtail plant response rating” value [7, 19] was 10 and the “Plant response rating (0 to 10; 0 is no effect, 10 is complete control), Giant foxtail” value ([7]; Rate 250 g/ha, Postemergence) was 8. For the same compound, the “Giant foxtail plant response rating” value [7, 20] was 9, the “Redroot pigweed plant response rating” value [8, 14] was 0 and the “Redroot pigweed plant response rating” value [8, 15] was 9. The “Plant response rating, Redroot pigweed” value [8, 16] was 10, the “Redroot pigweed plant response rating” value [8, 17] was 5 and the “Redroot pigweed plant response rating” value [8, 18] was 7. The “Redroot pigweed plant response rating” value [8, 19] was 4, the “Plant response rating (0 to 10; 0 is no effect, 10 is complete control), Redroot pigweed” value ([8]; Rate 250 g/ha, Postemergence) was 8 and the “Redroot pigweed plant response rating” value [8, 20] was 8. For the same compound, the “Plant response rating, Wheat (winter)” value [9, 12] was 35, the “Wheat (winter) plant response rating (0 to 100 scale)” value ([9]; Rate 250 g/ha) was 60 and the “Plant response rating, Wheat (winter)” value [9, 13] was 60. For the same compound, the “Plant response rating, Blackgrass” value [10, 12] was 0, the “Blackgrass plant response rating (0 to 100 scale)” value ([10]; Rate 250 g/ha) was 20 and the “Plant response rating, Blackgrass” value [10, 13] was 70. The “Rape plant response rating” value [11, 14] was 0, the “Rape plant response rating” value [11, 15] was 6 and the “Plant response rating, Rape” value [11, 16] was 10. The “Rape plant response rating” value [11, 17] was 2, the “Rape plant response rating” value [11, 18] was 3 and the “Rape plant response rating” value [11, 19] was 0. For the same compound, the “Plant response rating (0 to 10; 0 is no effect, 10 is complete control), Rape” value ([11]; Rate 250 g/ha, Postemergence) was 7 and the “Rape plant response rating” value [11, 20] was 7.
